Assay [1] concerns the target T1, BRD4 bromo domain 1 [BRD4(1)] (Homo sapiens, UniProt O60885).
T1 construct: N-terminally His6-tagged BRD4(1) (amino acids 67-152); made in house; host or cells: E. coli
Nature of the assay: BRD4(1)/acetylated peptide H4 binding assay (TR-FRET). As to conditions: inhibition of interaction between His6-tagged BRD4(1) (amino acids 67-152) and acetylated histone H4 peptide. A digest of the protocol: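 TR-FRET measured displacement of a biotinylated tetra-acetylated H4 peptide from His6-BRD4(1) (aa 67-152, E. coli-expressed, typically 10 nM) in HEPES pH 7.5 buffer. Compounds were tested at 11 concentrations (0.1 nM–20 μM), with 10 min preincubation, then 1 h at 22 °C and ≥3 h at 4 °C. The 665/620 nm ratio gave IC50 by 4-parameter fit.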

Assay [2] deals with T2, BRD4 bromo domain 2 [BRD4(2)] (Homo sapiens, UniProt O60885).
T2 construct: N-terminally His6-tagged BRD4(2) (amino acids 357-445); made in house; host or cells: E. coli
Nature of the assay: BRD4(2)/acetylated peptide H4 binding assay (TR-FRET). The note with it: inhibition of interaction between His6-tagged BRD4(2) (amino acids 357-445) and acetylated histone H4 peptide. In a few lines: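 TR-FRET displacement of biotinylated tetra-acetylated H4 peptide from His6-BRD4(2) (aa 357-445, E. coli-expressed), 100 nM final, in HEPES pH 7.5 buffer; 11 compound concentrations 0.1 nM-20 μM, 10 min preincubation, then 1 h 22 °C plus ≥3 h 4 °C. 665/620 ratio read; IC50 by 4-parameter fit.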

Assay [3] concerns MOLM-13 cell line. Nature of the assay: MOLM-13 cell proliferation assay (alamarBlue). The format is cell-based. The note with it: Homo sapiens, inhibition of proliferation of MOLM-13 cells (acute myeloid leukaemia), 96 hours incubation. The procedure: In accordance with the invention, the substances were tested for their ability to inhibit the proliferation of the MOLM-13 cell linie (Deutsche Sammlung für Mikroorganismen und Zellkulturen [German Collection of Microorganisms and Cell Cultures], ACC 554; acute myeloid leukaemia). Cell viability was determined by means of the alamarBlue® reagent (Invitrogen) in a Victor X3 Multilabel Reader (Perkin Elmer). The excitation wavelength was 530 nm and the emission wavelength […].
The MOLM-13 cells were sown at a density of 4000 cells/well in 100 μl of growth medium on 96-well microtitre plates. After overnight incubation at 37° C., the fluorescence values were determined (CI values). The plates were then treated with various substance dilutions and incubated at 37° C. for 96 hours. Subsequently, the fluorescence values were determined (CO values). For the data analysis, the CI values were subtracted from the CO values and the results were compared between cells which had been treated with various dilutions of the substance or only with buffer solution. The IC50 values (substance concentration needed for 50% inhibition of cell proliferation) were calculated therefrom.
In general terms: Alamar Blue is a resazurin reagent that responds to reducing activity.

For orientation: IC50 means the concentration that gives 50% inhibition. Read a low IC50 as greater potency in that assay. For `COc1cc(C(=O)NC2CCN(C)CC2)ccc1Nc1ccc2c(n1)N(C(C)C)[C@H](C)C(=O)N2C` [Example 2, 4-{[(3R)-1,3-Dimethyl-2-oxo-4-(propan-2-yl)-1,2,3,4-tetrahydropyrido[2,3-b]pyrazin-6-yl]amino}-3-methoxy-N-(1-methylpiperidin-4-yl)benzamide], the figures for the IC50 in assay [1], in assay [2] and in assay [3] were 501 nM, 622 nM and 2360 nM, respectively.
Taken in the same sequence, the figures for `COc1cc(C(=O)NCCN2CCOCC2)ccc1Nc1ccc2c(n1)N(C(C)C)[C@H](C)C(=O)N2C` [Example 3, 4-{[(3R)-1,3-Dimethyl-2-oxo-4-(propan-2-yl)-1,2,3,4-tetrahydropyrido[2,3-b]pyrazin-6-yl]amino}-3-methoxy-N-[2-(morpholin-4-yl)ethyl]benzamide] were 131 nM, 472 nM and 630 nM.
Taken in the same sequence, the figures for `COc1cc(C(=O)NCCN2CCN(C(=O)OC(C)(C)C)CC2)ccc1Nc1ccc2c(n1)N(C(C)C)[C@H](C)C(=O)N2C` [Example 4, 1-tert-Butyl 4-{2-[(4-{[(3R)-1,3-dimethyl-2-oxo-4-(propan-2-yl)-1,2,3,4-tetrahydropyrido[2,3-b]pyrazin-6-yl]amino}-3-methoxybenzoyl)amino]ethyl}piperazinecarboxylate] were 374 nM, 234 nM and 1110 nM.
Taken in the same sequence, the figures for `COc1cc(C(=O)N2CC3(CCS3(=O)=O)C2)ccc1Nc1ccc2c(n1)N(C(C)C)[C@H](C)C(=O)N2C` [Example 8, (3R)-6-({4-[(1,1-Dioxido-1-thia-6-azaspiro[3.3]hept-6-yl)carbonyl]-2-methoxyphenyl}amino)-4-isopropyl-1,3-dimethyl-3,4-dihydropyrido[2,3-b]pyrazin-2(1H)-one] were 141 nM, 83 nM and 362 nM.
Take `CC(C)N1c2nc(Nc3ccc(C(=O)N4CC5(CCS5(=O)=O)C4)cc3)ccc2N(C)C(=O)[C@H]1C` [Example 9, (3R)-6-({4-[(1,1-Dioxido-1-thia-6-azaspiro[3.3]hept-6-yl)carbonyl]phenyl}amino)-4-isopropyl-1,3-dimethyl-3,4-dihydropyrido[2,3-b]pyrazin-2(1H)-one]: the IC50 was 150 nM in assay [1], 130 nM in assay [2] and 698 nM in assay [3].
Taken in the same sequence, the figures for `COc1cc(C(=O)N2CC3(CCS3(=O)=O)C2)ccc1Nc1ccc2c(n1)N(C1CCCC1)[C@H](C)C(=O)N2C` [Example 10, (3R)-4-Cyclopentyl-6-({4-[(1,1-dioxido-1-thia-6-azaspiro[3.3]hept-6-yl)carbonyl]-2-methoxyphenyl}amino)-1,3-dimethyl-3,4-dihydropyrido[2,3-b]pyrazin-2(1H)-one] were 165 nM, 230 nM and 623 nM.
Taken in the same sequence, the figures for `C[C@@H]1C(=O)N(C)c2ccc(Nc3ccc(C(=O)NC4CCN(C)CC4)cc3)nc2N1C1CCCC1` [Example 11, 4-{[(3R)-4-Cyclopentyl-1,3-dimethyl-2-oxo-1,2,3,4-tetrahydropyrido[2,3-b]pyrazin-6-yl]amino}-N-(1-methylpiperidin-4-yl)benzamide] were 63 nM, 83 nM and 444 nM.
Taken in the same sequence, the figures for `COc1cc(C(=O)NC2CCN(C)CC2)ccc1Nc1ccc2c(n1)N(C1CCOCC1)[C@H](C)C(=O)N2C` [Example 13, 4-{[(3R)-1,3-Dimethyl-2-oxo-4-(tetrahydro-2H-pyran-4-yl)-1,2,3,4-tetrahydropyrido[2,3-b]pyrazin-6-yl]amino}-3-methoxy-N-(1-methylpiperidin-4-yl)benzamide] were 114 nM, 113 nM and 212 nM.
As to `COc1cc(C(=O)N[C@H]2CC[C@H](N3CCN(CC4CC4)CC3)CC2)ccc1Nc1ccc2c(n1)N(C1CCOCC1)[C@H](C)C(=O)N2C` [Example 14, N-{trans-4-[4-(Cyclopropylmethyl)piperazin-1-yl]cyclohexyl}-4-{[(3R)-1,3-dimethyl-2-oxo-4-(tetrahydro-2H-pyran-4-yl)-1,2,3,4-tetrahydropyrido[2,3-b]pyrazin-6-yl]amino}-3-methoxybenzamide], the IC50 in assay [1] was 149 nM; in assay [2] it was 108 nM; in assay [3] it was 233 nM.
Taken in the same sequence, the figures for `C[C@@H]1C(=O)N(C)c2ccc(Nc3ccc(S(=O)(=O)N[C@H]4CC[C@H](N5CCN(CC6CC6)CC5)CC4)cc3)nc2N1C1CCOCC1` [Example 15, N-{trans-4-[4-(Cyclopropylmethyl)piperazin-1-yl]cyclohexyl}-4-{[(3R)-1,3-dimethyl-2-oxo-4-(tetrahydro-2H-pyran-4-yl)-1,2,3,4-tetrahydropyrido[2,3-b]pyrazin-6-yl]amino}benzenesulphonamide] were 237 nM, 51 nM and 62 nM.
Taken in the same sequence, the figures for `C[C@@H]1C(=O)N(C)c2ccc(Nc3ccc(S(=O)(=O)N4CCOCC4)cc3)nc2N1C1CCOCC1` [Example 18, (3R)-1,3-dimethyl-6-{[4-(morpholin-4-ylsulphonyl)phenyl]amino}-4-(tetrahydro-2H-pyran-4-yl)-3,4-dihydropyrido[2,3-b]pyrazin-2(1H)-one] were 56 nM, 40 nM and 305 nM.
For the compound `C[C@@H]1C(=O)N(C)c2ccc(Nc3ccc(S(=O)(=O)N4CCN(C)CC4)cc3)nc2N1C1CCOCC1` [Example 20, (3R)-1,3-dimethyl-6-({4-[(4-methylpiperazin-1-yl)sulphonyl]phenyl}amino)-4-(tetrahydro-2H-pyran-4-yl)-3,4-dihydropyrido[2,3-b]pyrazin-2(1H)-one], the IC50 in assay [1] was found to be 154 nM; in assay [2], 96 nM; in assay [3] it was 445 nM.
Taken in the same sequence, the figures for `C[C@@H]1C(=O)N(C)c2ccc(Nc3ccc(S(=O)(=O)N4CCN(C)CC4)cc3F)nc2N1C1CCOCC1` [Example 21, (3R)-6-({2-fluoro-4-[(4-methylpiperazin-1-yl)sulphonyl]phenyl}amino)-1,3-dimethyl-4-(tetrahydro-2H-pyran-4-yl)-3,4-dihydropyrido[2,3-b]pyrazin-2(1H)-one] were 106 nM, 87 nM and 397 nM.
As to `C[C@@H]1C(=O)N(C)c2ccc(Nc3ccc(S(=O)(=O)NC4CCN(C)CC4)cc3)nc2N1C1CCOCC1` [Example 22, 4-{[(3R)-1,3-dimethyl-2-oxo-4-(tetrahydro-2H-pyran-4-yl)-1,2,3,4-tetrahydropyrido[2,3-b]pyrazin-6-yl]amino}-N-(1-methylpiperidin-4-yl)benzenesulphonamide], the IC50 was 52 nM in assay [1], 53 nM in assay [2] and 203 nM in assay [3].
Taken in the same sequence, the figures for `C[C@@H]1C(=O)N(C)c2ccc(Nc3ccc(S(=O)(=O)NCCN4CCN(C)CC4)cc3)nc2N1C1CCOCC1` [Example 23, 4-{[(3R)-1,3-dimethyl-2-oxo-4-(tetrahydro-2H-pyran-4-yl)-1,2,3,4-tetrahydropyrido[2,3-b]pyrazin-6-yl]amino}-N-[2-(4-methylpiperazin-1-yl)ethyl]benzene-sulponamide] were 46 nM, 65 nM and 358 nM.

(Values after patent US20160193206A1, “BET-PROTEIN-INHIBITING DIHYDROPYRIDOPYRAZINONES” (BAYER PHARMA AKTIENGESELLSCHAFT, priority 2012, published 2016).)
